Experimental data as given in paper PMC4904262 (ACS Medicinal Chemistry Letters, 2016).

How the values were obtained:
[1] = target: MNK2 (Homo sapiens, UniProt Q9HBH9); conditions: 1 µM, ATP at Km
[2] = target: PKD2 (Homo sapiens, UniProt Q9BZL6); conditions: 1 µM, ATP at Km
[3] = target: PTK5 (Homo sapiens, UniProt P42685); conditions: 1 µM, ATP at Km
[4] = target: PKCGAMMA (Homo sapiens, UniProt P05129); conditions: 1 µM, ATP at Km
[5] = target: TLK2 (Homo sapiens, UniProt Q86UE8); conditions: 1 µM, ATP at Km
[6] = target: BRK (Homo sapiens, UniProt Q13882); conditions: 1 µM, ATP at Km
[7] = target: ASK1 (Homo sapiens, UniProt Q99683); conditions: 1 µM, ATP at Km
[8] = target: DYRK2 (Homo sapiens, UniProt Q92630); conditions: 1 µM, ATP at Km
[9] = target: PLK1 (Homo sapiens, UniProt P53350); conditions: 1 µM, ATP at Km
[10] = target: PRKAA2 (Homo sapiens, UniProt P54646); conditions: 1 µM, ATP at Km
[11] = target: TIE2 (Homo sapiens, UniProt Q02763); conditions: 1 µM, ATP at Km
[12] = target: PYK2 (Homo sapiens, UniProt Q14289); conditions: 1 µM, ATP at Km
[13] = target: PKG1BETA (Homo sapiens, UniProt Q13976); conditions: 1 µM, ATP at Km
[14] = target: ERBB4 (Homo sapiens, UniProt Q15303); conditions: 1 µM, ATP at Km
[15] = target: ROS (Homo sapiens, UniProt P08922); conditions: 1 µM, ATP at Km
[16] = target: EPHA7 (Homo sapiens, UniProt Q15375); conditions: 1 µM, ATP at Km
[17] = target: EGFR (Homo sapiens, UniProt P00533); conditions: 1 µM, ATP at Km
[18] = target: ZIPK (Homo sapiens, UniProt O43293); conditions: 1 µM, ATP at Km
[19] = target: NEK3 (Homo sapiens, UniProt P51956); conditions: 1 µM, ATP at Km
[20] = target: IR, ACTIVATED (Homo sapiens, UniProt P06213); conditions: 1 µM, ATP at Km
[21] = target: TRKA (Homo sapiens, UniProt P04629); conditions: 1 µM, ATP at Km
[22] = target: JNK1ALPHA1 (Homo sapiens, UniProt P45983); conditions: 1 µM, ATP at Km
[23] = target: CDK5/P25 (Homo sapiens, UniProt Q00535); conditions: 1 µM, ATP at Km
[24] = tested on: phospho-STAT1^SER727; test: cells; conditions: Homo sapiens, SW-620, read-out: pSTAT1^SER727 IC50 ± SD
[25] = target: NEK7 (Homo sapiens, UniProt Q8TDX7); conditions: 1 µM, ATP at Km
[26] = target: PEK (Homo sapiens, UniProt Q9NZJ5); conditions: 1 µM, ATP at Km
[27] = target: PIM-1 (Homo sapiens, UniProt P11309); conditions: 1 µM, ATP at Km
[28] = target: […] (Homo sapiens, UniProt Q13555); conditions: 1 µM, ATP at Km
[29] = target: PIM-2 (Homo sapiens, UniProt Q9P1W9); conditions: 1 µM, ATP at Km
[30] = target: HCK (Homo sapiens, UniProt P08631); conditions: HCK (first listing, page 8); 1 µM; ATP at Km
[31] = target: CDK6/CYCLIND3 (Homo sapiens, UniProt Q00534); conditions: 1 µM, ATP at Km
[32] = target: PKBALPHA (Homo sapiens, UniProt P31749); conditions: 1 µM, ATP at Km
[33] = target: KDR (Homo sapiens, UniProt P35968); conditions: 1 µM, ATP at Km
[34] = target: PKBGAMMA (Homo sapiens, UniProt Q9Y243); conditions: 1 µM, ATP at Km
[35] = target: CDK5/P35 (Homo sapiens, UniProt Q00535); conditions: 1 µM, ATP at Km
[36] = target: MARK1 (Homo sapiens, UniProt Q9P0L2); conditions: 1 µM, ATP at Km
[37] = target: EPHB1 (Homo sapiens, UniProt P54762); conditions: 1 µM, ATP at Km
[38] = target: PKCIOTA (Homo sapiens, UniProt P41743); conditions: 1 µM, ATP at Km
[39] = target: BMX (Homo sapiens, UniProt P51813); conditions: 1 µM, ATP at Km
[40] = target: FLT1 (Homo sapiens, UniProt P17948); conditions: 1 µM, ATP at Km
[41] = target: SRPK2 (Homo sapiens, UniProt P78362); conditions: 1 µM, ATP at Km
[42] = target: PIP4K2A (Homo sapiens, UniProt P48426); conditions: 1 µM, ATP at Km
[43] = target: TAO1 (Homo sapiens, UniProt Q7L7X3); conditions: 1 µM, ATP at Km
[44] = target: FLT3 (Homo sapiens, UniProt P36888); conditions: 1 µM, ATP at Km

Chain of PYK2 (Q14289 whole entry): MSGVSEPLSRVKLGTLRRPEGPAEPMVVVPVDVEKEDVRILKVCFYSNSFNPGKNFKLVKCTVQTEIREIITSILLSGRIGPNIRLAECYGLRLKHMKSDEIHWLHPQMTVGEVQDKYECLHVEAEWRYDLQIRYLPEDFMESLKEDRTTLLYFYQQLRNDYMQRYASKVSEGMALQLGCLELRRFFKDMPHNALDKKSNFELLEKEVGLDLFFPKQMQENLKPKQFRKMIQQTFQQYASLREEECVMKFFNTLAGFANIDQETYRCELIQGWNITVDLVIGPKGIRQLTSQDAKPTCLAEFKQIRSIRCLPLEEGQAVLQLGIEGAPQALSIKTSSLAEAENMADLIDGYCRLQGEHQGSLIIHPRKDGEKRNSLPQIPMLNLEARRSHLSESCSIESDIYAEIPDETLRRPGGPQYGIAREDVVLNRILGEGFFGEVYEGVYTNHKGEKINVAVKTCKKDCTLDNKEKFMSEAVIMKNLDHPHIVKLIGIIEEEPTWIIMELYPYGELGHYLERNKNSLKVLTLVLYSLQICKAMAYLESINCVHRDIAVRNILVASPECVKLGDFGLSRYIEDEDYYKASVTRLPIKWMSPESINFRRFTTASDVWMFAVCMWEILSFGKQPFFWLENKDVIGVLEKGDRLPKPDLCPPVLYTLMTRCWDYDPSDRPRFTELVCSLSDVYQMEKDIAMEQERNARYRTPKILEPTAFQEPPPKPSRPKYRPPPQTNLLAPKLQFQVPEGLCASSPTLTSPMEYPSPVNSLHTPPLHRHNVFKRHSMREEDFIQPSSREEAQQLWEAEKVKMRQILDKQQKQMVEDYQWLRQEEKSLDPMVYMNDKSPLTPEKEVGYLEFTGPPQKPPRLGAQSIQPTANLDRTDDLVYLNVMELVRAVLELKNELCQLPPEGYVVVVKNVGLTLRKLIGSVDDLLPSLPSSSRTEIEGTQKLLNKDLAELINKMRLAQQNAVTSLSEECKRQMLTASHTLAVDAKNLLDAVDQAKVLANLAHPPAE
Chain of PIM-2 (Q9P1W9 whole entry): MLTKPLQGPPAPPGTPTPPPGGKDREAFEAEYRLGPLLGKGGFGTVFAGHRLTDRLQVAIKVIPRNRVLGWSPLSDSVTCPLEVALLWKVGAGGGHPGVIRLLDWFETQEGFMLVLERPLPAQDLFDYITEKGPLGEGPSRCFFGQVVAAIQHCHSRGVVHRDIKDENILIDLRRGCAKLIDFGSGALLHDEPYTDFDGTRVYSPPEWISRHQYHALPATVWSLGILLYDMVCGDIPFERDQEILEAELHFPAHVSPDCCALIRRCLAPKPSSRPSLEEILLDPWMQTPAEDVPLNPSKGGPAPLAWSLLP
Chain of BMX (P51813 whole entry): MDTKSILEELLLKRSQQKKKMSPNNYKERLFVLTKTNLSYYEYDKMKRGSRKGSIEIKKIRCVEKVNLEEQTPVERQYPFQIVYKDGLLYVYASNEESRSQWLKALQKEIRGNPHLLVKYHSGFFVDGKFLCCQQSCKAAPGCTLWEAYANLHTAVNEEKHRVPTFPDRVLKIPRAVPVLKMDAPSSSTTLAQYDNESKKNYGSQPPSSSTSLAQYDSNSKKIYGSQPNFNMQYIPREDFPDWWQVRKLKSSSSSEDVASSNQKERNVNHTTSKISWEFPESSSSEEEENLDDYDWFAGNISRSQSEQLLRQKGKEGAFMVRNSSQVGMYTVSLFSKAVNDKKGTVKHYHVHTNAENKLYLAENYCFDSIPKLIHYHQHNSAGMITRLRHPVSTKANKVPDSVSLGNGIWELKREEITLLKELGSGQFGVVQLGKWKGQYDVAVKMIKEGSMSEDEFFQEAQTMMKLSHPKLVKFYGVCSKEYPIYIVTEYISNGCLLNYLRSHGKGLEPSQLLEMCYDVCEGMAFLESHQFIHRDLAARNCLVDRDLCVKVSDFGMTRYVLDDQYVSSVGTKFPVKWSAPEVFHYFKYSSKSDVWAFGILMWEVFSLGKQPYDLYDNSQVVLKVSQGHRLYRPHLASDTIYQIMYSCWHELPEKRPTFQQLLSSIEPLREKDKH
Chain of MNK2 (Q9HBH9 whole entry): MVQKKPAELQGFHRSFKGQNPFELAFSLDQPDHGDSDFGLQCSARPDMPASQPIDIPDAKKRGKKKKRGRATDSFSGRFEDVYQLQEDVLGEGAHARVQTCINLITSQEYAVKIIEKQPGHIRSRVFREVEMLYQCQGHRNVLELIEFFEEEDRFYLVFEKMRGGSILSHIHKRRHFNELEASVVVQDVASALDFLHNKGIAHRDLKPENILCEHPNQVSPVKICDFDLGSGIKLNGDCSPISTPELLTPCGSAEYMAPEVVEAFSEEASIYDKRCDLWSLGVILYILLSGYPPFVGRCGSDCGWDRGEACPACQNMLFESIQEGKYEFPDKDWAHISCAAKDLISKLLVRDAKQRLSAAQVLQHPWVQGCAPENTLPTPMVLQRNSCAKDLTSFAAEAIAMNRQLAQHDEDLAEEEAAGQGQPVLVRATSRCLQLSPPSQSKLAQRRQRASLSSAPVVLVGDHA
Chain of ZIPK (O43293 whole entry): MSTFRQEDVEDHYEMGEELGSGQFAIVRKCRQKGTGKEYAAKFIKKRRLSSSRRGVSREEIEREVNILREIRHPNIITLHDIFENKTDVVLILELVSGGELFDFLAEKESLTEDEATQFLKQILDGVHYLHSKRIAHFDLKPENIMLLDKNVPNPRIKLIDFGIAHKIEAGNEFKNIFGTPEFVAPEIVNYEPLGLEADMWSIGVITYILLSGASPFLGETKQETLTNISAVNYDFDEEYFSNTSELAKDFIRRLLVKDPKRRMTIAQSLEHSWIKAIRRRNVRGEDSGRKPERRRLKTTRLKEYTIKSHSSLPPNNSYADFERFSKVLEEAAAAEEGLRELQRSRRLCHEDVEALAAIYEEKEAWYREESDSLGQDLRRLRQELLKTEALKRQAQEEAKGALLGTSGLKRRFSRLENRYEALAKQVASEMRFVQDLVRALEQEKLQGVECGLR
Chain of TIE2 (Q02763 23-1124): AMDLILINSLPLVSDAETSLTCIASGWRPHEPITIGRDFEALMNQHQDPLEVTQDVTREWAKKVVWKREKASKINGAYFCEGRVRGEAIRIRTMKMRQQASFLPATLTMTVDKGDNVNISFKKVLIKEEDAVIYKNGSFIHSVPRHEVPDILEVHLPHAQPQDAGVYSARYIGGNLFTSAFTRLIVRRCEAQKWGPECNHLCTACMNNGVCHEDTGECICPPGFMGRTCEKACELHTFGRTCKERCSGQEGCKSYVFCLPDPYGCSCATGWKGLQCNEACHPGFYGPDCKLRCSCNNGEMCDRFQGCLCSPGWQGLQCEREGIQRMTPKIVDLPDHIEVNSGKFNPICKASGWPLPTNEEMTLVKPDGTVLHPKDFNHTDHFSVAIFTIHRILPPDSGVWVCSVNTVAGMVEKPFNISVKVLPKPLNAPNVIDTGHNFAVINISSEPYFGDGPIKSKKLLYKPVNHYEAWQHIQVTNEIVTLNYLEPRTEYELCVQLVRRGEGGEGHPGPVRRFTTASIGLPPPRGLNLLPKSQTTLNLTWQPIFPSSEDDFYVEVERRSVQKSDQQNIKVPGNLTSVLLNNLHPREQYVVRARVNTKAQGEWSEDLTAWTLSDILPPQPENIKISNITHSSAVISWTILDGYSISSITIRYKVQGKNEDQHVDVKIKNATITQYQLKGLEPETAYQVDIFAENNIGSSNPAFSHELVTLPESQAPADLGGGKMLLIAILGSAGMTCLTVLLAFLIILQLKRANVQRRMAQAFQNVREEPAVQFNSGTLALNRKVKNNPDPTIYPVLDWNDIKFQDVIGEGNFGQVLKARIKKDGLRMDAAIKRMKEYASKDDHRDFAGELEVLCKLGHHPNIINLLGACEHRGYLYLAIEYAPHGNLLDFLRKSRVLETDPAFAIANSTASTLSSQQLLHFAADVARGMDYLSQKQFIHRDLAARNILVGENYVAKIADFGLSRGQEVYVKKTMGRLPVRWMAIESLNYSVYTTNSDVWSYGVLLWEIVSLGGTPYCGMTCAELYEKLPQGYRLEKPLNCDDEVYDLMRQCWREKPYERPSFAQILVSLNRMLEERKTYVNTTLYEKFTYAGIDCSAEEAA
Chain of NEK7 (Q8TDX7 whole entry): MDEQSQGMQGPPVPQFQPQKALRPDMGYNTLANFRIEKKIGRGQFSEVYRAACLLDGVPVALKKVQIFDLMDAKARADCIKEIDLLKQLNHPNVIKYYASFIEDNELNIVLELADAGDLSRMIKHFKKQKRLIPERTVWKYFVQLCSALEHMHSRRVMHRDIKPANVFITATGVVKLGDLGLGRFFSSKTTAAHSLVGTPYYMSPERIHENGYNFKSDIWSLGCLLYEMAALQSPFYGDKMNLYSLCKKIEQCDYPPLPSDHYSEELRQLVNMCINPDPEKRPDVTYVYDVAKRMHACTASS
Chain of PKBALPHA (P31749 whole entry): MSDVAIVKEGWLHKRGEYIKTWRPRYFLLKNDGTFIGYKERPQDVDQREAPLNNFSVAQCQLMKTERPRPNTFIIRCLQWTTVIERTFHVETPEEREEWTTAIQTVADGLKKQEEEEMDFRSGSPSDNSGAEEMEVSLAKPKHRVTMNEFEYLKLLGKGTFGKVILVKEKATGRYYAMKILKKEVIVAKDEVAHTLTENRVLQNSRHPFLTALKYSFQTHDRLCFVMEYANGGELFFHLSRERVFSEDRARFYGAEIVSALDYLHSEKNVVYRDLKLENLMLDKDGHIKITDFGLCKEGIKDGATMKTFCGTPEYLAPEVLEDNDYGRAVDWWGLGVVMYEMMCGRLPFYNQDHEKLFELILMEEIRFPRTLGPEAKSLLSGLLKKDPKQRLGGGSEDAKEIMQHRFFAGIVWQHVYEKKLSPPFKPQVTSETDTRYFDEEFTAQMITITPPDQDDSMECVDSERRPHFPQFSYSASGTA

`COC1CN(C(=O)c2ccc3c(N)ncc(-c4ccc(-c5cnn(C)c5)cc4)c3n2)C1` [Compound 51] was tested, and the percentage effect [1] was -7%, the percentage effect [2] was -1% and the percentage effect [3] was -8%. For the same compound, the percentage effect [4] was -1%, the percentage effect [5] was 2% and the percentage effect [6] was 10%. The percentage effect [7] was 0%, the percentage effect [8] was -6% and the percentage effect [9] was 1%. It also gave a percentage effect [10] of -1%, a percentage effect [11] of -6% and a percentage effect [12] of -4%. For the same compound, the percentage effect [13] was 1%, the percentage effect [14] was -8% and the percentage effect [15] was 14%. For the same compound, the percentage effect [16] was -4%, the percentage effect [17] was -45% and the percentage effect [18] was 25%. For the same compound, the percentage effect [19] was -14%, the percentage effect [20] was -15% and the percentage effect [21] was -23%. For the same compound, the percentage effect [22] was -4%, the percentage effect [23] was 3% and the IC50 [24] was 17.9 ± 10.6 nM. The percentage effect [25] was -6%, the percentage effect [26] was -6% and the percentage effect [27] was -10%. The percentage effect [28] was 5%, the percentage effect [29] was 16% and the percentage effect [30] was -6%. It also gave a percentage effect [31] of -10%, a percentage effect [32] of -11% and a percentage effect [33] of 0%. For the same compound, the percentage effect [34] was -4%, the percentage effect [35] was 8% and the percentage effect [36] was -5%. The percentage effect [37] was 13%, the percentage effect [38] was -16% and the percentage effect [39] was -3%. The percentage effect [40] was -9%, the percentage effect [41] was 0% and the percentage effect [42] was -5%. The percentage effect [43] was -1% and the percentage effect [44] was 0%.
Compound `COC1CN(C(=O)c2ccc3c(N)ncc(-c4ccc(-c5cnn(C)c5)cc4)c3c2)C1` [Compound 59] has a percentage effect [1] of -4%, a percentage effect [2] of -5% and a percentage effect [3] of -4%. For the same compound, the percentage effect [4] was 9%, the percentage effect [5] was -5% and the percentage effect [6] was 5%. For the same compound, the percentage effect [7] was -10%, the percentage effect [8] was -9% and the percentage effect [9] was -6%. The percentage effect [10] was 2%, the percentage effect [11] was -18% and the percentage effect [12] was -1%. It also gave a percentage effect [13] of 1%, a percentage effect [14] of -34% and a percentage effect [15] of -4%. It also gave a percentage effect [16] of 1%, a percentage effect [17] of 14% and a percentage effect [18] of -5%. The percentage effect [19] was -2%, the percentage effect [20] was -2% and the percentage effect [21] was -25%. The percentage effect [22] was -11%, the percentage effect [23] was 11% and the IC50 [24] was 114 ± 20.6 nM. The percentage effect [25] was -26%, the percentage effect [26] was 1% and the percentage effect [27] was -13%. The percentage effect [28] was 2%, the percentage effect [29] was 14% and the percentage effect [30] was -3%. It also gave a percentage effect [31] of -14%, a percentage effect [32] of 4% and a percentage effect [33] of -5%. The percentage effect [34] was -6%, the percentage effect [35] was -2% and the percentage effect [36] was -14%. It also gave a percentage effect [37] of -44%, a percentage effect [38] of 2% and a percentage effect [39] of 1%. The percentage effect [40] was -15%, the percentage effect [41] was -2% and the percentage effect [42] was 1%. The percentage effect [43] was 9% and the percentage effect [44] was 16%.
